Each compound was assayed on human dermal papilla cells (assay: Promotion of proliferation of human dermal papilla cells (CellTiter-Glo Luminescent cell viability assay)). Details: human dermal papilla cells (ScienCell, 2499); drug 0 to 30 μM; 48 hours; CellTiter-Glo luminescence; compared to DMSO-treated control group.
Type: cell-based
Experimental: The effect of promoting cell proliferation by the drug was analyzed using human dermal papilla cells (ScienCell, 2499). Human dermal papilla cells cultured using Mesenchymal Stem Cell Medium (ScienCell, 7501) medium were seeded at a density of 3×10^3 cells/well and in a volume of 100 μl in a 96-well plate, incubated overnight at 37° C. and 5% CO2, treated with the drug at different concentrations ranging from 0 to 30 μM in a volume of 100 μL, and incubated at 37° C. and 5% CO2 for 48 hours. CellTiter-Glo Luminescent cell viability assay was performed according to the manufacturer's protocol (Promega, G7573) to detect cell proliferation. Luminescence was measured using an Envision 2102 multilabeled reader (PerkinElmer) equipment, and the cell proliferation rate was analyzed by the activity of the drug-treated group compared to the DMSO-treated group (control group), which is a solvent of the drug.

Compound | Maximum DP cell proliferation (%)
Nc1n[nH]c2nc(Nc3cccc(C(F)F)c3F)ncc12 [Example 115, N6-(3-(difluoromethyl)-2-fluorophenyl)-1H-pyrazolo[3,4-d]pyrimidine-3,6-diamine] | 3.7%
Nc1n[nH]c2nc(Nc3cccc4c3CNC4=O)c(F)cc12 [Compound 53, 4-((3-amino-5-fluoro-1H-pyrazolo[3,4-b]pyridin-6-yl)amino)isoindolin-1-one] | 2.4%
Nc1n[nH]c2nc(Nc3cccc4c3CCC4)c(C(=O)O)cc12 [Compound 16, 3-amino-6-((2,3-dihydro-1H-inden-4-yl)amino)-1H-pyrazolo[3,4-b]pyridine-5-carboxylic acid] | 6.1%
Nc1n[nH]c2nc(Nc3cccc4c3CCC4)nc(Cl)c12 [Example 116, 4-chloro-N6-indan-4-yl-3a,4-didehydro-1H-pyrazolo[3,4-d]pyrimidine-3,6-diamine] | 5.9%
Nc1n[nH]c2nc(Nc3cccc(C(F)(F)F)c3Cl)c(F)cc12 [Compound 77, N6-(2-chloro-3-(trifluoromethyl)phenyl)-5-fluoro-1H-pyrazolo[3,4-b]pyridine-3,6-diamine] | 15%
Nc1n[nH]c2nc(Nc3cccc(C(F)F)c3F)c(F)cc12 [Compound 61, N6-(3-(difluoromethyl)-2-fluorophenyl)-5-fluoro-1H-pyrazolo[3,4-b]pyridine-3,6-diamine] | 11%
Nc1n[nH]c2nc(Nc3cccc4c3CC(=O)N4)c(F)cc12 [Compound 54, 4-((3-amino-5-fluoro-1H-pyrazolo[3,4-b]pyridin-6-yl)amino)indolin-2-one] | 4.4%
Nc1n[nH]c2nc(Nc3cccc4c3CCC4)c(F)cc12 [Compound 3, N6-(2,3-dihydro-1H-inden-4-yl)-5-fluoro-1H-pyrazolo[3,4-b]pyridine-3,6-diamine] | 23%
Nc1n[nH]c2nc(Nc3ccc(F)c(C(F)(F)F)c3F)c(F)cc12 [Compound 80, N6-(2,4-difluoro-3-(trifluoromethyl)phenyl)-5-fluoro-1H-pyrazolo[3,4-b]pyridine-3,6-diamine] | 6%
Nc1n[nH]c2nc(Nc3cccc4c3CCC4)ncc12 [Example 112, N6-(2,3-dihydro-1H-inden-4-yl)-1H-pyrazolo[3,4-d]pyrimidine-3,6-diamine] | 2%
CNc1n[nH]c2nc(Nc3cccc4c3CCC4)c(F)cc12 [Compound 102, 5-fluoro-N6-indan-4-yl-N3-methyl-1H-pyrazolo[3,4-b]pyridine-3,6-diamine] | 13%
O=C(Nc1n[nH]c2nc(Nc3cccc4c3CCC4)c(F)cc12)c1ccncc1 [Compound 91, N-(6-((2,3-dihydro-1H-inden-4-yl)amino)-5-fluoro-1H-pyrazolo[3,4-b]pyridin-3-yl)isonicotinamide] | 6.4%
Nc1n[nH]c2nc(Nc3cc(F)cc(C(F)(F)F)c3F)c(F)cc12 [Compound 73, N6-[2,5-difluoro-3-(trifluoromethyl)phenyl]-5-fluoro-1H-pyrazolo[3,4-b]pyridine-3,6-diamine] | 14%
COC(=O)CNc1n[nH]c2nc(Nc3cccc4c3CCC4)c(F)cc12 [Compound 101, methyl (6-((2,3-dihydro-1H-inden-4-yl)amino)-5-fluoro-1H-pyrazolo[3,4-b]pyridin-3-yl)glycinate] | 9.7%
Nc1nn(CC(=O)c2ccccc2)c2nc(Nc3cccc4c3CCC4)c(F)cc12 [Compound 100, 2-(3-amino-6-((2,3-dihydro-1H-inden-4-yl)amino)-5-fluoro-1H-pyrazolo[3,4-b]pyridin-1-yl)-1-phenylethan-1-one] | 0.8%
Cn1ccc2c(Nc3nc4[nH]nc(N)c4cc3F)cccc21 [Compound 6, 5-fluoro-N6-(1-methyl-1H-indol-4-yl)-1H-pyrazolo[3,4-b]pyridine-3,6-diamine] | 7%
Nc1n[nH]c2nc(Nc3cc(O)cc4c3CCC4)c(F)cc12 [Compound 56, 7-[(3-amino-5-fluoro-1H-pyrazolo[3,4-b]pyridin-6-yl)amino]indan-5-ol] | 7.3%
CN(C)CCn1nc(N)c2cc(F)c(Nc3cccc4c3CCC4)nc21 [Compound 96, N6-(2,3-dihydro-1H-inden-4-yl)-1-(2-(dimethylamino)ethyl)-5-fluoro-1H-pyrazolo[3,4-b]pyridine-3,6-diamine] | 1.2%
Cc1cc2c(c(Nc3nc4[nH]nc(N)c4cc3F)c1)CCC2 [Compound 27, 5-fluoro-N6-(6-methyl-2,3-dihydro-1H-inden-4-yl)-1H-pyrazolo[3,4-b]pyridine-3,6-diamine] | 6.8%
Nc1n[nH]c2nc(Nc3cccc(C(F)(F)F)c3F)c(F)cc12 [Compound 64, 5-fluoro-N6-(2-fluoro-3-(trifluoromethyl)phenyl)-1H-pyrazolo[3,4-b]pyridine-3,6-diamine] | 16%

Compound | Maximum DP cell proliferation (%)
Nc1n[nH]c2nc(Nc3cccc4c3CCCC4)cnc12 [Compound 45, N6-tetralin-5-yl-1H-pyrazolo[3,4-b]pyrazine-3,6-diamine] | 7%
Nc1n[nH]c2nc(Nc3cccc(F)c3C(F)(F)F)c(F)cc12 [Compound 62, 5-fluoro-N6-(3-fluoro-2-(trifluoromethyl)phenyl)-1H-pyrazolo[3,4-b]pyridine-3,6-diamine] | 6.2%
O=C1c2ccccc2C(=O)N1c1nn(C2CCCCO2)c2nc(Nc3cccc4c3CCC4)c(F)cc12 (stereo not drawn) [Compound 97, 2-(6-((2,3-dihydro-1H-inden-4-yl)amino)-5-fluoro-1-(tetrahydro-2H-pyran-2-yl)-1H-pyrazolo[3,4-b]pyridin-3-yl)isoindoline-1,3-dione] | 10%
Nc1n[nH]c2nc(CNc3cccc4c3CCC4)c(F)cc12 [Compound 34, 5-fluoro-6-[(indan-4-ylamino)methyl]-1H-pyrazolo[3,4-b]pyridin-3-amine] | 6.8%
3-chloro-N-(2,3-dihydro-1H-inden-4-yl)-5-fluoro-1H-pyrazolo[3,4-b]pyridin-6-amine [Compound 8] | 7.9%
Nc1n[nH]c2nc(Nc3cc(C(F)(F)F)ccc3F)c(F)cc12 [Compound 68, 5-fluoro-N6-(2-fluoro-5-(trifluoromethyl)phenyl)-1H-pyrazolo[3,4-b]pyridine-3,6-diamine] | 4.5%
Cc1ccc2cccc(Nc3nc4[nH]nc(N)c4cc3F)c2c1 [Compound 31, 5-fluoro-N6-(7-methyl-1-naphthyl)-1H-pyrazolo[3,4-b]pyridine-3,6-diamine] | 3.2%
CC(=O)n1nc(N)c2cc(F)c(Nc3cccc4c3CCC4)nc21 [Compound 88, 1-(3-amino-6-((2,3-dihydro-1H-inden-4-yl)amino)-5-fluoro-1H-pyrazolo[3,4-b]pyridin-1-yl)ethan-1-one] | 8%
Nc1n[nH]c2nc(Nc3cccc4c3CCC4(F)F)c(F)cc12 [Compound 85, N6-(1,1-difluoro-2,3-dihydro-1H-inden-4-yl)-5-fluoro-1H-pyrazolo[3,4-b]pyridine-3,6-diamine] | 15%
Cc1ccc(Cl)c(Nc2nc3[nH]nc(N)c3cc2F)c1F [Compound 76, N6-(6-chloro-2-fluoro-3-methylphenyl)-5-fluoro-1H-pyrazolo[3,4-b]pyridine-3,6-diamine] | 4%
Nc1n[nH]c2nc(Nc3cccc4c3CCC4)c(Cl)c(Cl)c12 [Compound 42, 4,5-dichloro-N6-indan-4-yl-1H-pyrazolo[3,4-b]pyridine-3,6-diamine] | 16%
Cc1ccc(Nc2nc3[nH]nc(N)c3cc2F)cc1C [Compound 18, N6-(3,4-dimethylphenyl)-5-fluoro-1H-pyrazolo[3,4-b]pyridine-3,6-diamine] | 7.8%
CC(C)(C)c1cccc(Nc2nc3[nH]nc(N)c3cc2F)c1 [Compound 5, N6-(3-(tert-butyl)phenyl)-5-fluoro-1H-pyrazolo[3,4-b]pyridine-3,6-diamine] | 7.4%
Nc1n[nH]c2nc(Nc3cccc4ccccc34)c(F)cc12 [Compound 24, 5-fluoro-N6-(naphthalen-1-yl)-1H-pyrazolo[3,4-b]pyridine-3,6-diamine] | 8%
CCCc1cc2c(N)n[nH]c2nc1Nc1cccc2c1CCC2 [Compound 21, N6-(2,3-dihydro-1H-inden-4-yl)-5-propyl-1H-pyrazolo[3,4-b]pyridine-3,6-diamine] | 3%
Nc1n[nH]c2nc(Nc3cccc(C(F)(F)F)c3F)ncc12 [Example 117, N6-[2-fluoro-3-(trifluoromethyl)phenyl]-1H-pyrazolo[3,4-d]pyrimidine-3,6-diamine] | 6.7%
Nc1n[nH]c2nc(Nc3c4c(cc5c3CCC5)CCC4)c(F)cc12 [Compound 29, 5-fluoro-N6-(1,2,3,5,6,7-hexahydro-s-indacen-4-yl)-1H-pyrazolo[3,4-b]pyridine-3,6-diamine] | 4.6%
Cc1c(Cl)c(Nc2cccc3c2CCC3)nc2[nH]nc(N)c12 [Compound 17, 5-chloro-N6-(2,3-dihydro-1H-inden-4-yl)-4-methyl-1H-pyrazolo[3,4-b]pyridine-3,6-diamine] | 6%
Nc1n[nH]c2nc(Nc3ccc(C(F)(F)F)c(F)c3)c(F)cc12 [Compound 72, 5-fluoro-N6-[3-fluoro-4-(trifluoromethyl)phenyl]-1H-pyrazolo[3,4-b]pyridine-3,6-diamine] | 6.8%
